Test results from article PMC7997396 (Cell host & microbe, 2020).

Target: mouse Trpa1 (Mus musculus, UniProt Q8BLA8)
Test: Ca2+ influx assay in HEK-293T cells transfected with mouse TRPA1
Assay type: cell-based

Sequence of mouse Trpa1 (Q8BLA8 whole entry): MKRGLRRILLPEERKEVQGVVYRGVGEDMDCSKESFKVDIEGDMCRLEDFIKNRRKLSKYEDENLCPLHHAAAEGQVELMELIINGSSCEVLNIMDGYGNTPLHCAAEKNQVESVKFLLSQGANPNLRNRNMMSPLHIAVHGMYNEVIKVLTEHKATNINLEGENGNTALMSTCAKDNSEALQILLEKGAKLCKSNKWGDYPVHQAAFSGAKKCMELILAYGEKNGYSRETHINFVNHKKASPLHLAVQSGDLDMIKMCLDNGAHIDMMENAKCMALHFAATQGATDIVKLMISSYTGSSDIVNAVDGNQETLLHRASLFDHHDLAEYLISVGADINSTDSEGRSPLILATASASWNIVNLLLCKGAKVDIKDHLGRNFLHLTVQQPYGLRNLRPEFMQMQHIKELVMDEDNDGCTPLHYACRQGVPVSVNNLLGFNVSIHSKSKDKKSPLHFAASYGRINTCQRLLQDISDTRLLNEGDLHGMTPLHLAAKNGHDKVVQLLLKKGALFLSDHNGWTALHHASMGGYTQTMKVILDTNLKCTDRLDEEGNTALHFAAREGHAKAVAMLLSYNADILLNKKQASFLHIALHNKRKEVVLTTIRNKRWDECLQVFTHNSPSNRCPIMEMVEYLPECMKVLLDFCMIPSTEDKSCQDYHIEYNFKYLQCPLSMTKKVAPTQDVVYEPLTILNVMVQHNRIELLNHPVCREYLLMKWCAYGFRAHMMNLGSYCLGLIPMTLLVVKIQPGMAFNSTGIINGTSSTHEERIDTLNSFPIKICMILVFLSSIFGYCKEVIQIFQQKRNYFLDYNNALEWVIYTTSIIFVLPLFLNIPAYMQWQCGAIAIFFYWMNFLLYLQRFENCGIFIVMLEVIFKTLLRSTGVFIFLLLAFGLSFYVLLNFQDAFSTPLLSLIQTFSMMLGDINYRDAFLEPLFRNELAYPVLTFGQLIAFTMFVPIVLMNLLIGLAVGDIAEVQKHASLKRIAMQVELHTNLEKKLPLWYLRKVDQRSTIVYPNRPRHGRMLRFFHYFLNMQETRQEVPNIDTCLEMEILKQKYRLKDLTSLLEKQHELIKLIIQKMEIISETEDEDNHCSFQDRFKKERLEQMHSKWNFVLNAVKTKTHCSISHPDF

In the case of `O=Cc1c[nH]c2ccccc12` [IAld, Indole-3-carboxaldehyde], the “Ca2+ influx assay in HEK-293T cells transfected with mouse TRPA1” value is reported as “Both indole and IAld also activated mouse Trpa1, but in a less potent manner”.

In the case of `c1ccc2[nH]ccc2c1` [Indole], the “Ca2+ influx assay in HEK-293T cells transfected with mouse TRPA1” value is reported as “Both indole and IAld also activated mouse Trpa1, but in a less potent manner”.
